# Tests used:
# Conditions in all cases: in vivo
# [1] = Drug distribution in nude mouse brain xenografted with human 22Rv1 cells at 8.1 MBq,iv measured after 2 hrs; type: ADME, tissue-based, CWR22R
# [2] = Drug distribution in nude mouse bone xenografted with human 22Rv1 cells at 8.1 MBq,iv measured after 2 hrs; type: ADME, tissue-based, Bone element, CWR22R
# [3] = Drug distribution in nude mouse muscle tissue xenografted with human 22Rv1 cells at 8.1 MBq,iv measured after 2 hrs; type: ADME, tissue-based, CWR22R
# [4] = Drug distribution in nude mouse tumor xenografted with human 22Rv1 cells at 8.1 MBq,iv measured after 2 hrs; type: ADME, tissue-based, Neoplasm, CWR22R
# [5] = Drug distribution in nude mouse blood xenografted with human 22Rv1 cells at 8.1 MBq,iv measured after 2 hrs; type: ADME, tissue-based, CWR22R
# [6] = Drug distribution in nude mouse heart xenografted with human 22Rv1 cells at 8.1 MBq,iv measured after 2 hrs in presence of 2-PMPA; type: ADME, tissue-based, CWR22R
# [7] = Drug distribution in nude mouse liver xenografted with human 22Rv1 cells at 8.1 MBq,iv measured after 2 hrs in presence of 2-PMPA; type: ADME, tissue-based, CWR22R
# [8] = Drug distribution in nude mouse spleen xenografted with human 22Rv1 cells at 8.1 MBq,iv measured after 2 hrs in presence of 2-PMPA; type: ADME, tissue-based, CWR22R
# [9] = Drug distribution in nude mouse lung xenografted with human 22Rv1 cells at 8.1 MBq,iv measured after 2 hrs in presence of 2-PMPA; type: ADME, tissue-based, CWR22R
# [10] = Drug distribution in nude mouse kidney xenografted with human 22Rv1 cells at 8.1 MBq,iv measured after 2 hrs in presence of 2-PMPA; type: ADME, tissue-based, CWR22R
# [11] = Drug distribution in nude mouse stomach xenografted with human 22Rv1 cells at 8.1 MBq,iv measured after 2 hrs in presence of 2-PMPA; type: ADME, tissue-based, CWR22R
# [12] = Drug distribution in nude mouse small intestine xenografted with human 22Rv1 cells at 8.1 MBq,iv measured after 2 hrs in presence of 2-PMPA; type: ADME, tissue-based, CWR22R
# [13] = Drug distribution in nude mouse large intestine xenografted with human 22Rv1 cells at 8.1 MBq,iv measured after 2 hrs in presence of 2-PMPA; type: ADME, tissue-based, CWR22R
# [14] = Drug distribution in nude mouse gall bladder xenografted with human 22Rv1 cells at 8.1 MBq,iv measured after 2 hrs in presence of 2-PMPA; type: ADME, tissue-based, CWR22R
# [15] = Drug distribution in nude mouse brain xenografted with human 22Rv1 cells at 8.1 MBq,iv measured after 2 hrs in presence of 2-PMPA; type: ADME, tissue-based, CWR22R
# [16] = Drug distribution in nude mouse bone xenografted with human 22Rv1 cells at 8.1 MBq,iv measured after 2 hrs in presence of 2-PMPA; type: ADME, tissue-based, Bone element, CWR22R
# [17] = Drug distribution in nude mouse muscle tissue xenografted with human 22Rv1 cells at 8.1 MBq,iv measured after 2 hrs in presence of 2-PMPA; type: ADME, tissue-based, CWR22R
# [18] = Drug distribution in nude mouse tumor xenografted with human 22Rv1 cells at 8.1 MBq,iv measured after 2 hrs in presence of 2-PMPA; type: ADME, tissue-based, Neoplasm, CWR22R
# [19] = Drug distribution in nude mouse blood xenografted with human 22Rv1 cells at 8.1 MBq,iv measured after 2 hrs in presence of 2-PMPA; type: ADME, tissue-based, CWR22R
# [20] = Drug distribution in nude mouse heart xenografted with human 22Rv1 cells at 8.1 MBq,iv measured after 4 hrs; type: ADME, tissue-based, CWR22R
# [21] = Drug distribution in nude mouse liver xenografted with human 22Rv1 cells at 8.1 MBq,iv measured after 4 hrs; type: ADME, tissue-based, CWR22R
# [22] = Drug distribution in nude mouse spleen xenografted with human 22Rv1 cells at 8.1 MBq,iv measured after 4 hrs; type: ADME, tissue-based, CWR22R
# [23] = Drug distribution in nude mouse lung xenografted with human 22Rv1 cells at 8.1 MBq,iv measured after 4 hrs; type: ADME, tissue-based, CWR22R
# [24] = Drug distribution in nude mouse kidney xenografted with human 22Rv1 cells at 8.1 MBq,iv measured after 4 hrs; type: ADME, tissue-based, CWR22R
# [25] = Drug distribution in nude mouse stomach xenografted with human 22Rv1 cells at 8.1 MBq,iv measured after 4 hrs; type: ADME, tissue-based, CWR22R
# [26] = Drug distribution in nude mouse small intestine xenografted with human 22Rv1 cells at 8.1 MBq,iv measured after 4 hrs; type: ADME, tissue-based, CWR22R
# [27] = Drug distribution in nude mouse large intestine xenografted with human 22Rv1 cells at 8.1 MBq,iv measured after 4 hrs; type: ADME, tissue-based, CWR22R
# [28] = Drug distribution in nude mouse gall bladder xenografted with human 22Rv1 cells at 8.1 MBq,iv measured after 4 hrs; type: ADME, tissue-based, CWR22R
# [29] = Drug distribution in nude mouse brain xenografted with human 22Rv1 cells at 8.1 MBq,iv measured after 4 hrs; type: ADME, tissue-based, CWR22R
# [30] = Drug distribution in nude mouse bone xenografted with human 22Rv1 cells at 8.1 MBq,iv measured after 4 hrs; type: ADME, tissue-based, Bone element, CWR22R
# [31] = Drug distribution in nude mouse tumor xenografted with human 22Rv1 cells at 8.1 MBq,iv measured after 4 hrs; type: ADME, tissue-based, Neoplasm, CWR22R
# [32] = Drug distribution in nude mouse blood xenografted with human 22Rv1 cells at 8.1 MBq,iv measured after 4 hrs; type: ADME, tissue-based, CWR22R
smiles,measurement,setting,value
COc1cc(C(=O)N[C@@H](CCC(=O)O)C(=O)N[C@@H](CCC(=O)O)C(=O)NCc2ccc(C(=O)N[C@@H](Cc3ccc4ccccc4c3)C(=O)NCCCC[C@H](NC(=O)N[C@@H](CCC(=O)O)C(=O)O)C(=O)O)cc2)ccc1OS(=O)(=O)[18F],Drug uptake,[1],0.1 % ID/g
same,Drug uptake,[2],3.79 % ID/g
same,Drug uptake,[3],0.45 % ID/g
same,Drug uptake,[4],4.54 % ID/g
same,Drug uptake,[5],2.95 % ID/g
same,Drug uptake,[6],0.85 % ID/g
same,Drug uptake,[7],2.4 % ID/g
same,Drug uptake,[8],0.83 % ID/g
same,Drug uptake,[9],1.58 % ID/g
same,Drug uptake,[10],4.33 % ID/g
same,Drug uptake,[11],0.57 % ID/g
same,Drug uptake,[12],9.02 % ID/g
same,Drug uptake,[13],1.1 % ID/g
same,Drug uptake,[14],4.39 % ID/g
same,Drug uptake,[15],0.08 % ID/g
same,Drug uptake,[16],2.49 % ID/g
same,Drug uptake,[17],0.46 % ID/g
same,Drug uptake,[18],1.82 % ID/g
same,Drug uptake,[19],3.86 % ID/g
same,Drug uptake,[20],0.31 % ID/g
same,Drug uptake,[21],0.79 % ID/g
same,Drug uptake,[22],0.97 % ID/g
same,Drug uptake,[23],0.52 % ID/g
same,Drug uptake,[24],19.91 % ID/g
same,Drug uptake,[25],0.44 % ID/g
same,Drug uptake,[26],0.79 % ID/g
same,Drug uptake,[27],1.34 % ID/g
same,Drug uptake,[28],1.39 % ID/g
same,Drug uptake,[29],0.02 % ID/g
same,Drug uptake,[30],3.76 % ID/g
same,Drug uptake,[31],4.47 % ID/g
same,Drug uptake,[32],0.8 % ID/g
